Where a name gives a salt, the structure may show the parent alone.
Legend:
[1] = Compound loss (PDMS ad- and absorption) in cell-free organ-chips; assay type: in vitro ADME; settings: for Compound Loss Bottom Channel (%) / Compound Loss Top Channel (%): 10 µM per drug in cocktail, outlet vs inlet after one hour at 200 µL/h, mean of two experiments
Description: S-1® Organ-Chips from Emulate Inc. (Boston, MA, USA) comprise 2 parallel channels (top and bottom) for cell culture, which are superimposed and separated via a porous membrane, all made of polydimethylsiloxane (PDMS). The 50 µm thick membrane contains pores of a diameter of 7 µm, which are spaced 40 µm apart from each other. In addition, 2 more channels, in which a vacuum can be applied to laterally stretch the cell culture channels, flank the cell culture channels horizontally. The top channel has a size of 1000 × 1000 µm (width × height), a culture area of 28 mm^2, and a volume of 28 µL. The bottom channel has a size of 1000 × 200 µm (width × height), a culture area of 24.5 mm^2, and a volume of 5.6 µL. Both channels share an area of 17.1 mm^2 of the porous membrane as a coculture area. To conduct experiments, each organ-chip is inserted into a cell culture container called Pod®, which connects 4 physically separated fluid reservoirs with the in- and outlets of the top and bottom channels. […] The Zoë module controls, as well as regulates, the vacuum and pressured gas flows generated by the Orb hub module, which also powers the Zoë module.
Compound loss experiments in cell-free organ-chips were performed with used chips after removal of the cells and washing-out of previously perfused compounds (Section 4). […] The compound concentrations in the outlets were measured via liquid chromatography-tandem mass spectrometry (LC-MS/MS, Section 2.8) after a period of one hour, with a flow rate of 200 µL/h (manufacturer’s instruction), and relatively compared to the inlet concentrations, and the difference was reported as the percent drug absorbed. The experiments were performed in duplicate.

Caco-2/HUVEC gut-on-chip [2] = assay: Metabolite identification in Caco-2/HUVEC gut-on-chip; settings: for fraction of the total amount of all metabolites (peak areas): testosterone 10 µM perfused 2 h at 200 µL/h, top and bottom outlets
Method: The analysis was performed on an LC-MS system containing a Vanquish UPLC (ThermoFisher Scientific, San Jose, CA, USA) coupled to an Orbitrap FusionTribrid high-resolution mass spectrometer (ThermoFisher Scientific). The structural elucidation was based on exact mass measurements in combination with the interpretation of fragment spectra.

P-gp [3] = assay: in vitro; settings: human, Caco-2
Method: Either the top (A–B direction) or bottom (B–A direction) channel served as the donor compartments and the respective other channels (A–B: bottom; B–A: top) as receiver compartments. […] Following an Emulate protocol, dosing of a cocktail of both compounds at 10 µM in transporter buffer was initiated via a drug introduction step (flow rate of 600 µL/h for 10 min), after which the outlets were aspirated. The outlet concentrations were determined after one hour (flow rate: 200 µL/h). […] The samples from the receiver outlets were used for the bioanalysis without dilution. The samples from the donor inlets, as well as outlets, were diluted 1:50 (v/v) in transport buffer. All samples were spiked with the internal standard and used for the LC-MS/MS analysis, as described in Section 2.8.

P-gp [4] = assay: Bidirectional permeability assay in Caco-2/HUVEC gut-on-chip; assay type: cell-based, human; settings: human, pH 7.4; Caco-2/HUVEC gut-on-chip, day 10; 10 µM; no inhibitor; read-out: efflux ratio, control
Method: (§1) The Caco-2/HUVEC gut-on-chip was prepared according to the Caco-2/HUVEC gut-on-chip protocol provided by Emulate Inc. Briefly, on day −1 of the protocol, the PDMS membrane was activated using Emulate reagent (ER) 1 dissolved in ER 2 solution at a concentration of 0.5 mg/mL. The top channels were filled with 50 µL and the bottom channels with 20 µL of ER 1 solution and then treated under UV light for 10 min. Next, activated ER 1 solution was aspirated from both channels and exchanged with fresh ER 1 solution after which the chips were again exposed to UV light for 5 min. The two channels were then subsequently washed with ER 2 solution followed by ice-cold PBS. After the PBS was fully aspirated from both channels, the chips were coated with 100 µg/mL Matrigel and 30 µg/mL collagen type I in PBS overnight at 37 °C. On day 0 of the protocol, both channels were washed with HUVEC culture medium before 0.14 × 10^6 viable HUVECs in 20 µL HUVEC culture medium were seeded in the bottom channel. The chips were inverted and HUVECs were allowed to adhere for at least 2 h to the porous PDMS membrane. Afterwards, the chips were inverted again, and the top channel was filled with enough Caco-2 culture medium to also cover the in- and outlets (~100 µL). Caco-2 cells were seeded in the top channel (0.15 × 10^6 viable cells in 50 µL Caco-2 culture medium). […]

Caco-2/HUVEC gut-on-chip [5] = assay: as above; assay type: cell-based, human; settings: coperfusion with elacridar 10 µM in Caco-2/HUVEC gut-on-chip
Method: as §1

P-gp [6] = target: T1, P-gp (Homo sapiens, UniProt P08183); assay: Inhibition of P-gp mediated Quinidine efflux in MDCK-MDR1 cells; assay type: cell-based; settings: probe quinidine, Supplementary Table S2
T1 construct: expressed in transfected cells; host or cells: MDCK-MDR1 cells
T1 sequence (P08183 whole entry): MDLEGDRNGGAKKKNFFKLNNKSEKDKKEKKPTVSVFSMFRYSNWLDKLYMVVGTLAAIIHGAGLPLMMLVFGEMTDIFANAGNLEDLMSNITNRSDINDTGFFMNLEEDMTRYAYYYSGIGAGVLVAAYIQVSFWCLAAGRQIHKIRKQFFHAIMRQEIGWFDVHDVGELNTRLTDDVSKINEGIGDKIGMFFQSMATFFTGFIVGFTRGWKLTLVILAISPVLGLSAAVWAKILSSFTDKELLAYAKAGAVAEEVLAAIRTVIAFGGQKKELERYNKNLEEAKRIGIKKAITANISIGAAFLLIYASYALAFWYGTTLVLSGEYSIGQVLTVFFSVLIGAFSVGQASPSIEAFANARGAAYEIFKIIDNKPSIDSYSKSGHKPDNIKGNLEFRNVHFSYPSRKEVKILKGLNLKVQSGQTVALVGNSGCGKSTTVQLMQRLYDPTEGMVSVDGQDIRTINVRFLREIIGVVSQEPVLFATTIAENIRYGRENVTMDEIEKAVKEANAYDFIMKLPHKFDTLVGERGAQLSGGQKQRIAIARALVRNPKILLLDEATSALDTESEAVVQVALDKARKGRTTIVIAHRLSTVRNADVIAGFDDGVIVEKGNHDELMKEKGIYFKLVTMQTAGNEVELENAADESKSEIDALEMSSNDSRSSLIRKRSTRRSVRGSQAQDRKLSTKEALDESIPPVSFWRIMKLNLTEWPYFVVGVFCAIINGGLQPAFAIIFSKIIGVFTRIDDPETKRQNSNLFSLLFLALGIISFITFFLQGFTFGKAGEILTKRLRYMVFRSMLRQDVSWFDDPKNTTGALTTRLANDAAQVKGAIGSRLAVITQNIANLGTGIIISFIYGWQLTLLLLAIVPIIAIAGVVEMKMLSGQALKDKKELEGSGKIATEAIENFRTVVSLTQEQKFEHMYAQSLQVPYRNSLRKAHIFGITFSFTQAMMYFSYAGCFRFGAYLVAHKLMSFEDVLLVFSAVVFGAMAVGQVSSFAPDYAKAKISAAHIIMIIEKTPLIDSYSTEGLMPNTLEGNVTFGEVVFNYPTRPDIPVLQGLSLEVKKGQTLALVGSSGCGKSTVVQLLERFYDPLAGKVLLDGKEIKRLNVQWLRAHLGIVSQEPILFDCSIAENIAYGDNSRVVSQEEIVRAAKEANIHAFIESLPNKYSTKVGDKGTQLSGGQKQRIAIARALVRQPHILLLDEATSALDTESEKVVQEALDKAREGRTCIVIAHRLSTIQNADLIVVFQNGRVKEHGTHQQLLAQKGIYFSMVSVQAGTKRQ

[7] = Time-resolved testosterone loss and chip-specific clearance in cell-free organ-chips
Method: The cell-free organ-chips were previously utilized in experiments with cells and were prepared in the same way as described for the compound loss studies above. The Caco-2/HUVEC gut-on-chip was cultivated under the conditions described for standard cell culture until day 13. […] An introduction step with a high flow rate of 600 µL/h is recommended by the manufacturer to “saturate” the ad- and absorptions of compounds by the PDMS material. The necessity of this step will be discussed in Section 3 and Section 4. After the introduction step, both outlets were aspirated. […] During the sampling, the flow was stopped for a few seconds, a Pod®, which included a chip, was removed from the Zoë, a single chip removed from the Pod®, and samples were taken. The samples from the bottom outlet were used directly for bioanalytical quantification. The samples from the top inlet and top outlet were sampled from the respective reservoirs and diluted 1:50 (v/v) in transport buffer. The chips were subsequently dismantled from the Pods, and samples from the top channel and bottom channel were taken with a pipette via the outlets (Figure 1A). The samples from the top channel were diluted 1:50 (v/v) and the samples from the bottom channel 1:2 (v/v) in transport buffer.
The outlet reservoirs contained, therefore, perfusates from time zero to time point t. […] A period of 60 min was chosen because it was recommended by the manufacturer for diverse applications. […] For time points before 60 min, Ct,last was identical to Ct,cum by definition. Vt is the total volume of perfusate collected from time zero to t. Vt was calculated with the following equation:(4) Vt=t÷60×Q
The time profiles of Ct,last in the cell-free organ-chips and in the Caco-2/HUVEC gut-on-chip are shown in Figure 6A,B. Using Ct,last, the compound loss can be calculated in each putative collecting period of 60 min with the following equation:(5) Losst=Cinlet−Ct, last, top−Ct, last, bottom×Q

Caco-2/HUVEC gut-on-chip [8] = assay: Time-resolved testosterone loss, clearance, permeability and mass balance in Caco-2/HUVEC gut-on-chip
Method: The Caco-2/HUVEC gut-on-chip was prepared according to the Caco-2/HUVEC gut-on-chip protocol provided by Emulate Inc. Briefly, on day −1 of the protocol, the PDMS membrane was activated using Emulate reagent (ER) 1 dissolved in ER 2 solution at a concentration of 0.5 mg/mL. The top channels were filled with 50 µL and the bottom channels with 20 µL of ER 1 solution and then treated under UV light for 10 min. Next, activated ER 1 solution was aspirated from both channels and exchanged with fresh ER 1 solution after which the chips were again exposed to UV light for 5 min. The two channels were then subsequently washed with ER 2 solution followed by ice-cold PBS. After the PBS was fully aspirated from both channels, the chips were coated with 100 µg/mL Matrigel and 30 µg/mL collagen type I in PBS overnight at 37 °C. On day 0 of the protocol, both channels were washed with HUVEC culture medium before 0.14 × 10^6 viable HUVECs in 20 µL HUVEC culture medium were seeded in the bottom channel. The chips were inverted and HUVECs were allowed to adhere for at least 2 h to the porous PDMS membrane. Afterwards, the chips were inverted again, and the top channel was filled with enough Caco-2 culture medium to also cover the in- and outlets (~100 µL). Caco-2 cells were seeded in the top channel (0.15 × 10^6 viable cells in 50 µL Caco-2 culture medium). Caco-2 cells were also allowed to adhere for 2 h and then the channels were filled with the respective media and incubated overnight at 37 °C. On day 1, the inlet reservoirs of the Pods were filled with 3 mL of the respective degassed media, and the chips were connected to the Pods. The Pods were then placed into the Zoë module, and a flow at a rate of 30 µL/h (manufacturer’s instruction) was applied for both channels. From day 3 onwards, the HUVECs were cultured in HUVEC culture medium but with 0.5% FCS. On day 3, 10% lateral, peristalsis-like stretch was activated with a frequency of 0.15 Hz (manufacturer’s instruction). On day 8, the FCS concentration in the Caco-2 culture medium was reduced from 20% to 10%. Medium reservoirs were replenished with fresh medium 2–3 times per week.
The cell-free organ-chips were previously utilized in experiments with cells and were prepared in the same way as described for the compound loss studies above. The Caco-2/HUVEC gut-on-chip was cultivated under the conditions described for standard cell culture until day 13. […] An introduction step with a high flow rate of 600 µL/h is recommended by the manufacturer to “saturate” the ad- and absorptions of compounds by the PDMS material. […] The samples from the bottom outlet were used directly for bioanalytical quantification. […]
A quantitative bioanalysis was performed with a fit-for-purpose assay using protein precipitation followed by LC-MS/MS. […]

[9] = cell-free organ-chips, testosterone 10 µM, 200 µL/h

Row | SMILES | Compound Loss Bottom Channel (%) ([1]; cell-free organ-chips) | Compound Loss Top Channel (%) ([1]; cell-free organ-chips) | also measured
1 | C=C[C@H]1C[N@@]2CC[C@H]1C[C@@H]2[C@@H](O)c1ccnc2ccc(OC)cc12 [Quinidine] | 13.4 | 0.3 | 
2 | C[C@]12CC[C@H]3[C@@H](CCC4=CC(=O)CC[C@@]43C)[C@@H]1CC[C@@H]2O[C@@H]1O[C@H](C(=O)O)[C@@H](O)[C@H](O)[C@H]1O [testosterone glucuronide] |  |  | fraction of the total amount of all metabolites (peak areas) (Caco-2/HUVEC gut-on-chip [2]): 3.2%
3 | O=C1CC2(CCCC2)CC(=O)N1CCCCN1CCN(c2ncccn2)CC1 [Busiprone] | 30.5 | 33.1 | 
4 | CC(C)c1c(C(=O)Nc2ccccc2)c(-c2ccccc2)c(-c2ccc(F)cc2)n1CC[C@@H](O)C[C@@H](O)CC(=O)O [Atorvastatin] | 7.4 | 18.9 | 
5 | Cc1nnc2n1-c1sc(CCC(=O)N3CCOCC3)cc1C(c1ccccc1Cl)=NC2 [Apafant] | 8.0 | 15.0 | efflux ratio (P-gp [3]): 12.4 ± 7.8; efflux ratio at 1 h, 10 µM (P-gp [4]): 22.2
6 | C[C@]12CCC(=O)C=C1CC[C@@H]1[C@@H]2CC[C@]2(C)C(=O)CC[C@@H]12 [4-androstenedione] |  |  | fraction of the total amount of all metabolites (peak areas) (Caco-2/HUVEC gut-on-chip [2]): 96.5%; compound loss in cell-free organ-chips (in words, relative to testosterone) ([1]; Supplementary Table S1): much higher compound loss
7 | COc1cc2c(cc1OC)CN(CCc1ccc(NC(=O)c3cccc4c(=O)c5cccc(OC)c5[nH]c34)cc1)CC2 [Elacridar] |  |  | inhibition of the efflux of Apafant (Caco-2/HUVEC gut-on-chip [5]): completely; IC90 (P-gp [6]): ~1000 nM
8 | C[C@]12CC[C@H]3[C@@H](CCC4=CC(=O)CC[C@@]43C)[C@@H]1CC[C@@H]2O [Testosterone] | 35.1 | 37.6 | final testosterone concentration in the bottom channel and outlet ([7]; cell-free organ-chips, 10 µM via top inlet, 200 µL/h, 135 min): < 1000 nM; testosterone concentration in the top channel and outlet ([7]; cell-free organ-chips, 10 µM via top inlet, 200 µL/h, reached over 135 min): ~ 7000 nM; clearance (chip-specific / chip-intrinsic clearance) ([7]; cell-free organ-chips, collecting period 75-135 min, flow 200 µL/h): 11.7 µL/h; compound loss during the first 60 min of the collecting period [7, 9]: 719.1 pmol/h; compound loss in the last 60 min of the collecting period [7, 9]: 116.5 pmol/h; compound loss corresponding to chip-intrinsic clearance ([7]; corresponds to 11.7 µL/h at flow 200 µL/h): 6%; CYP3A4-related hydroxylation of testosterone (Caco-2/HUVEC gut-on-chip [2]; Caco-2/HUVEC gut-on-chip): did not detect; maximum testosterone concentration (top channel and outlet) (Caco-2/HUVEC gut-on-chip [8]; Caco-2/HUVEC gut-on-chip, 10 µM via top inlet, 200 µL/h, 135 min): < 2000 nM; time to steady state (Caco-2/HUVEC gut-on-chip [8]; Caco-2/HUVEC gut-on-chip, first sample time point): ≤ 15 min; clearance (total) in Caco-2/HUVEC gut-on-chip (Caco-2/HUVEC gut-on-chip [8]; collecting period 75-135 min, flow 200 µL/h): 172.1 µL/h; metabolic clearance in the gut-on-chip (Caco-2/HUVEC gut-on-chip [8]; total clearance minus chip-specific clearance, flow 200 µL/h): 160.4 µL/h
9 | CC(C)c1nc(N(C)S(C)(=O)=O)nc(-c2ccc(F)cc2)c1/C=C/[C@@H](O)C[C@@H](O)CC(=O)O [Rosuvastatin] | 7.9 | 12.6 | 
10 | Cc1c(-c2ccc(O)cc2)n(Cc2ccc(OCCN3CCCCCC3)cc2)c2ccc(O)cc12 [Bazedoxifene] | 26.0 | 56.4 | 
11 | Cc1ncc2n1-c1ccc(Cl)cc1C(c1ccccc1F)=NC2 [Midazolam] | 67.8 | 72.1 | 
12 | CC(C)(C)NC(=O)[C@@H]1C[C@@H]2CCCC[C@@H]2CN1C[C@@H](O)[C@H](Cc1ccccc1)NC(=O)[C@H](CC(N)=O)NC(=O)c1ccc2ccccc2n1 [Saquinavir] | 21.9 | 48.0 | 
13 | CCOC(=O)C1=C(C)NC(C)=C(C(=O)OC)C1c1cccc(Cl)c1Cl (centres unmarked) [Felodipine] | 84.0 | 79.0 | 
14 | O=C1[C@H](CC[C@H](O)c2ccc(F)cc2)[C@@H](c2ccc(O)cc2)N1c1ccc(F)cc1 [Ezetemibe] | 1.3 | 0.0 | 
15 | CCN(CC)CC#CCOC(=O)C(O)(c1ccccc1)C1CCCCC1 (centres unmarked) [Oxybutynin] | 100.0 | 99.9 | PDMS compound loss during the one-hour period (in words) ([1]; cell-free organ-chips, 10 µM, one hour, 200 µL/h, top and bottom channels): complete
16 | O[C@@H](COc1cccc2ncccc12)CN1CCN([C@@H]2c3ccccc3[C@@H]3[C@H](c4ccccc42)C3(F)F)CC1 [Zosuquidar] | 99.0 | 97.0 | compound loss after 1 h of perfusion ([1]; cell-free organ-chips, 10 µM): ~100%
17 | C[C@]12CC[C@H]3[C@@H](CCC4=CC(=O)CC[C@@]43C)[C@@H]1CC[C@@H]2OS(=O)(=O)O [testosterone sulfate] |  |  | fraction of the total amount of all metabolites (peak areas) (Caco-2/HUVEC gut-on-chip [2]): 0.3%

From PMC10974294, “Addressing the ADME Challenges of Compound Loss in a PDMS-Based Gut-on-Chip Microphysiological System” (Pharmaceutics, 2024)
